Results: the supplement of paper PMC8967900

What was measured:
Assay in all cases: selective drug sensitivity score (sDSS, relative to normal bone marrow) (sDSS (score)); higher = more potent and effective on the cell line relative to normal bone marrow cells
Settings in all cases: 72 h
[1] = system: CCRF-CEM
[2] = system: COG-LL-355h
[3] = system: DND-41
[4] = system: SEM cells
[5] = system: TANOUE
[6] = system: LC4-1
[7] = system: MOLT-4
[8] = system: REH
[9] = system: KASUMI-10
[10] = system: JURKAT
[11] = system: MHH-CALL-3
[12] = system: SUP-B15
[13] = system: COG-LL-317
[14] = system: HAL-01
[15] = system: KASUMI-2
[16] = system: COG-LL-402h
[17] = system: RCH-ACV
[18] = system: MOLT-16
[19] = system: KASUMI-9
[20] = system: P12-ICHIKAWA
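Also: ALL cell lines in 384-well plates, five doses spanning 10,000-fold, each plate scaled between vehicle and 100 µmol/L benzalkonium chloride controls, sDSS an adapted area-under-curve metric.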

| SMILES | selective drug sensitivity score [1] | selective drug sensitivity score [2] | selective drug sensitivity score [3] | selective drug sensitivity score [4] | selective drug sensitivity score [5] | selective drug sensitivity score [6] | selective drug sensitivity score [7] | selective drug sensitivity score [8] | selective drug sensitivity score [9] | selective drug sensitivity score [10] | selective drug sensitivity score [11] | selective drug sensitivity score [12] | selective drug sensitivity score [13] | selective drug sensitivity score [14] | selective drug sensitivity score [15] | selective drug sensitivity score [16] | selective drug sensitivity score [17] | selective drug sensitivity score [18] | selective drug sensitivity score [19] | selective drug sensitivity score [20] |
| --- | --- | --- | --- | --- | --- | --- | --- | --- | --- | --- | --- | --- | --- | --- | --- | --- | --- | --- | --- | --- |
| CN1CCN(C2CCC(n3cc(-c4ccc(Oc5ccccc5)cc4)c4c(N)ncnc43)CC2)CC1 (stereo not given) (top concentration 10000 nM) | 1.12 | -0.08 | 3.62 | 9.62 | -4.68 | -1.78 | 0.82 | 4.12 | 8.52 | 0.62 | 6.92 | 16.1 | 0.82 | 7.52 | -1.38 | 18.2 | 22.7 | 0.52 | 6.52 | 1.12 |
| CC[C@H](CC#N)OC(=O)N[C@@H](C)c1cccc(NC(=O)Nc2ccc(-c3cnco3)c(OC)c2)c1 [AVN944] (top concentration 10000 nM) | 12.1 | -2.16 | 8.44 | 7.04 | -3.66 | 5.34 | 15.6 | 16.8 | 10.1 | 13.7 | 11.1 | 14.6 | 20.6 | 5.54 | 14.4 | 9.64 | 22 | 22.3 | 13.5 | 14.2 |
| COc1ccc(-c2ccc3c(N4CCOC[C@@H]4C)nc(N4CCOC[C@@H]4C)nc3n2)cc1CO [AZD8055] (top concentration 10000 nM) | 13.4 | 6.38 | 4.78 | 6.18 | -3.02 | 6.38 | 7.08 | 12.8 | 0.48 | 4.88 | -0.52 | 11.9 | 4.78 | 5.08 | 14.6 | 9.88 | 27.4 | 12.5 | 13.3 | 6.78 |
| COc1cccc2c1C(=O)c1c(O)c3c(c(O)c1C2=O)C[C@@](O)(C(=O)CO)C[C@@H]3O[C@H]1C[C@H](N)[C@@H](O)[C@H](C)O1 [Epirubicin] (top concentration 1000 nM) | 8.02 | 3.22 | -0.58 | 3.82 | -7.88 | 7.62 | 9.92 | 10.5 | 5.82 | 1.02 | 14.8 | 13.7 | 17 | -4.28 | 7.72 | 14.9 | 12.9 | 15.4 | 7.62 | 4.62 |
| CO[C@H]1C[C@@H]2CC[C@@H](C)[C@@](O)(O2)C(=O)C(=O)N2CCCC[C@H]2C(=O)O[C@H]([C@H](C)C[C@@H]2CC[C@@H](OCCO)[C@H](OC)C2)CC(=O)[C@H](C)/C=C(\C)[C@@H](O)[C@@H](OC)C(=O)[C@H](C)C[C@H](C)/C=C/C=C/C=C/1C [Everolimus] (top concentration 100 nM) | 5.9 | 1.5 | 1.1 | 1.4 | -5.3 | 3.3 | -1.2 | 4 | -5.3 | -1 | 3.4 | 6.1 | 2.4 | 2.7 | 11.8 | 1 | 16 | 8.1 | 10.3 | -2.5 |
| CON(C)C(=O)N1N=C(c2cc(F)ccc2F)S[C@@]1(CCCN)c1ccccc1 [Filanesib] (top concentration 1000 nM) | 16.2 | 1.7 | 6.3 | 20.3 | -6.5 | 13.2 | 9.3 | 11.9 | 14.2 | 17.7 | 5.2 | 21.6 | 20.8 | 11.5 | 19.8 | 17.7 | 16.3 | 21.2 | 12.4 | 15.9 |
| CN(Cc1cnc2nc(N)nc(N)c2n1)c1ccc(C(=O)N[C@@H](CCC(=O)O)C(=O)O)cc1 [Methotrexate] (top concentration 5000 nM) | 13 | -0.42 | 15 | -0.42 | 15.3 | -0.02 | 11.2 | -0.22 | 9.88 | 13.4 | 10.4 | -0.32 | 9.18 | 17.1 | 0.28 | 2.38 | 9.48 | 15.7 | -0.42 | 15.8 |
| CC[C@@]1(O)C(=O)OCc2c1cc1n(c2=O)Cc2cc3c(CN(C)C)c(O)ccc3nc2-1 [Topotecan] (top concentration 10000 nM) | 21.2 | 10.9 | 21.4 | 20.3 | -3.62 | 21.7 | 19.9 | 22.2 | 18 | 15.2 | 12.2 | 22.4 | 28 | 20 | 14.7 | 17.7 | 19.5 | 21.5 | 18.2 | 19.2 |
| O=c1[nH]c(=O)n([C@H]2C[C@H](O)[C@@H](CO)O2)cc1C(F)(F)F [Trifluridine] (top concentration 10000 nM) | 14.2 | 0.06 | 9.76 | 14.5 | -1.84 | 16 | 7.36 | 15.3 | 6.36 | 9.66 | 6.56 | 15.4 | 15.6 | 8.76 | 10.3 | 8.26 | 15.2 | 15.1 | 6.56 | 15.4 |
| Cc1sc2c(c1C)C(c1ccc(Cl)cc1)=N[C@@H](CC(=O)NCCCCNC(=O)COc1cccc3c1C(=O)N(C1CCC(=O)NC1=O)C3=O)c1nnc(C)n1-2 (stereo not given in full) [dBET1] (top concentration 10000 nM) | -3.68 | 6.22 | -0.88 | -3.38 | -17.5 | 5.22 | -9.28 | -1.28 | 2.32 | -11.9 | -1.88 | 0.52 | 2.42 | -14.9 | -6.88 | 2.22 | 0.22 | 1.42 | 2.42 | -11.6 |
